PMC8921294, “Inhibition of mitochondrial LonP1 protease by allosteric blockade of ATP binding and hydrolysis via CDDO and its derivatives” (The Journal of Biological Chemistry, 2022)

How the values were obtained:
26S proteasome = test: 26S proteasome-dependent degradation of p53 in HeLa ρ^0 cells (immunoblot); format: cell-based, human; conditions: 7 h
Source text: LonP1 belongs to the AAA^+ superfamily of ATPases Associated with diverse cellular Activities, which mediate various cellular processes such as DNA replication, recombination, chromatin remodeling, ribosomal RNA processing, membrane fusion as well as ATP-dependent proteolysis ([48]). The 26S proteasome consists of the 20S proteolytic core particle, which mediates peptide bond hydrolysis and the 19S regulatory particle containing ATPases belonging to the AAA^+ family ([49]). […] We sought to test the apparent selectivity of CDDO derivatives for LonP1 but not the 26S in cultured cells. There are no known proteins that are constitutively degraded by LonP1 under baseline conditions, which would permit us to assay protease inhibition by CDDO derivatives. Therefore, we employed experimentally derived HeLa cells lacking mitochondrial DNA (mtDNA) (referred to as HeLa ρ^0 cells) ([50]), in which LonP1 constitutively degrades mitochondrial transcription factor A (TFAM) ([6]). When TFAM fails to bind mtDNA (e.g., when mtDNA is absent), it is rapidly degraded by LonP1, thus providing a readout for protease activity ([6]). An advantage of using this system is that HeLa cells express the human papillomavirus (HPV) E6 protein, which promotes constitutive degradation of p53 by the 26S proteasome. Thus, the effects of CDDO derivatives on LonP1 and the 26S proteasome can be examined in parallel.
HeLa cells devoid of mitochondrial DNA (HeLa ρ^0) and LCL cells were generated as described previously ([50]). DMEM, RPMI, and fetal bovine serum were purchased from Sigma. All cells were grown with 5% CO2 at 37 °C. LCL cells were cultured in RPMI supplemented with 15% FBS. HeLa Rho 0 cells were cultured in high glucose DMEM (25 mM) (Sigma) supplemented with sodium pyruvate ([…]) and uridine ([…]). CDDO-Me was purchased from Cayman chemicals, and CDDO-AH was synthesized as described previously ([20]). […]

heme oxygenase 1 (HO-1) = test: HO-1 stabilisation in HeLa ρ^0 cells (immunoblot); format: cell-based, human; conditions: 7 h
Experimental: LonP1 knockdown stabilized HO-1 protein, whereas LonP1 overexpression decreased HO-1 protein (Fig. 4, E and F).
HeLa cells devoid of mitochondrial DNA (HeLa ρ^0) and LCL cells were generated as described previously ([50]). DMEM, RPMI, and fetal bovine serum were purchased from Sigma. All cells were grown with 5% CO2 at 37 °C. LCL cells were cultured in RPMI supplemented with 15% FBS. HeLa Rho 0 cells were cultured in high glucose DMEM (25 mM) (Sigma) supplemented with sodium pyruvate ([…]) and uridine ([…]). CDDO-Me was purchased from Cayman chemicals, and CDDO-AH was synthesized as described previously ([20]). HEK293 cells plated in 60 mm dishes at a confluency of 60 to 70% were transfected with Control or 3′UTR LonP1 siRNA using Lipofectamine 2000 (Invitrogen) and reduced serum OPTI MEM (Sigma) as described in the manufacturer’s protocol to knockdown LonP1, whereas adenoviral transduction was employed to overexpress LonP1. CDDO-Me and CDDO-anhydride were dissolved in DMSO and serially diluted in the respective complete medium and added to HeLa ρ^0 cells and were treated for 7 or 24 h.
Cells were harvested, centrifuged, and washed with PBS and proteins were extracted by adding the lysis buffer (50 mM Tris, [pH 7.5], 300 mM NaCl, and 0.5% Triton X-100) containing 2X Halt phosphatase and protease cocktail inhibitor (Thermo Scientific) for 20 min on ice. […]

| SMILES | 26S proteasome-mediated degradation of p53 (26S proteasome; 20 μM) | Concentration stabilising HO-1 (heme oxygenase 1 (HO-1)) | Protein levels of p53 (26S proteasome; 1 μM) | 26S proteasome-dependent degradation of p53 (26S proteasome; 0.125 to 0.5 μM) |
| --- | --- | --- | --- | --- |
| CC1(C)CC[C@]2(C(=O)OC(=O)[C@]34CCC(C)(C)C[C@H]3[C@H]3C(=O)C=C5[C@@]6(C)C=C(C#N)C(=O)C(C)(C)[C@@H]6CC[C@@]5(C)[C@]3(C)CC4)CC[C@]3(C)[C@H](C(=O)C=C4[C@@]5(C)C=C(C#N)C(=O)C(C)(C)[C@@H]5CC[C@]43C)[C@@H]2C1 [CDDO-anhydride] | did not block | ≥ 0.25 µM | – | – |
| COC(=O)[C@]12CCC(C)(C)C[C@H]1[C@H]1C(=O)C=C3[C@@]4(C)C=C(C#N)C(=O)C(C)(C)[C@@H]4CC[C@@]3(C)[C@]1(C)CC2 [CDDO-Me] | – | ≥ 0.125 µM | increased | did not block |
